Among the data in ChEMBL document CHEMBL1128895, “Synthesis and pharmacological characterization of A-80426: A putative novel antidepressant combining -2 antagonism with 5-HT uptake inhibition” (Bioorg Med Chem Lett, 1995) are Ki, ED50 and IC50 values, retold here.

pIC50, pKi: −log10 of the molar value.

In test [1] the target is T1, Adrenergic receptor alpha-2 (Rattus norvegicus, UniProt P22086+P19328+P22909).
T1 sequence (P22086 whole entry): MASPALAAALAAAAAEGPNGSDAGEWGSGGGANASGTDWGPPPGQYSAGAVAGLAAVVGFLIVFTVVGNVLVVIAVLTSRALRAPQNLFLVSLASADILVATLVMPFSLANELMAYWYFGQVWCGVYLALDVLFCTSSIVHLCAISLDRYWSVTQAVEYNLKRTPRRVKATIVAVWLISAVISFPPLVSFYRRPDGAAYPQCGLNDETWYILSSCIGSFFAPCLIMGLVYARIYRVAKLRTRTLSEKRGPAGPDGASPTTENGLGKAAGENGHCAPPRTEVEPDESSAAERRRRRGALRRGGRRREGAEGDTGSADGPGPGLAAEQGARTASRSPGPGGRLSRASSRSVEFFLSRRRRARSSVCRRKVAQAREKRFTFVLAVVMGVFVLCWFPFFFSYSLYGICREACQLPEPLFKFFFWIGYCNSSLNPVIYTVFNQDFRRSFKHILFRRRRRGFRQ
T1 sequence (P19328 whole entry): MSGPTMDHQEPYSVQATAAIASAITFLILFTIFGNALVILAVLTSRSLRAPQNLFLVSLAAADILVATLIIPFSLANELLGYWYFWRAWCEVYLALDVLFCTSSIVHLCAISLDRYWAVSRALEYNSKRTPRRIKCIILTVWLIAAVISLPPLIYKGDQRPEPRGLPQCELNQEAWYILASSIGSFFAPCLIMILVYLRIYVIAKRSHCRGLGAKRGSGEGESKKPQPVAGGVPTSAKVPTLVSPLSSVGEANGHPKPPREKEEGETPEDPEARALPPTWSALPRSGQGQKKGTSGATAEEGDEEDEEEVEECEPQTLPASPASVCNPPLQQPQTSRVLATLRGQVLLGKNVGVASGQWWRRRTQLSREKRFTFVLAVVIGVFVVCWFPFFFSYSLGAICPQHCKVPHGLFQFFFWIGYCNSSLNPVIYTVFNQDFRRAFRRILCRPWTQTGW
T1 sequence (P22909 whole entry): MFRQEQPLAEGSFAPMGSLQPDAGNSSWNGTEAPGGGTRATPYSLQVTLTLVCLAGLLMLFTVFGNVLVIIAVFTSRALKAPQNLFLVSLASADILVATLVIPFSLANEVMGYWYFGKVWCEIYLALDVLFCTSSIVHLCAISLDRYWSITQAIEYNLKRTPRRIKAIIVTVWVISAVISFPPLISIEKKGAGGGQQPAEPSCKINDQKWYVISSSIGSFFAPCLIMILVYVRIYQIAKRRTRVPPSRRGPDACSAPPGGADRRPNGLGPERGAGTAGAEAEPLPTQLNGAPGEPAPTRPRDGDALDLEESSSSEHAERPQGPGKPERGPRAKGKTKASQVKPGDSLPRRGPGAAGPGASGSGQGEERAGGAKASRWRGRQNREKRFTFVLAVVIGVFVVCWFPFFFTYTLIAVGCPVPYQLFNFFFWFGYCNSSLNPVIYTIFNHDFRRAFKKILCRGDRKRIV
Description: Evaluated for affinity at Alpha-2 adrenergic receptor of rat cortex using [3H]rauwolscine as radioligand in radioligand binding assay.

The species named for test [2] is Rattus norvegicus. The test is described as follows: […] p-chloroamphetamine (PCA) induced hyperactivity in rats. Format: functional.
Test [3] is filed under the species Rattus norvegicus. The test is described as follows: Evaluated for inhibition of norepinephrine, biogenic amine reuptake in synaptosomal rat brain preparations. Format: functional.
Test [4] concerns the target T2, Adrenergic receptor alpha-1 (Rattus norvegicus, UniProt P15823+P23944+P43140).
T2 sequence (P15823 whole entry): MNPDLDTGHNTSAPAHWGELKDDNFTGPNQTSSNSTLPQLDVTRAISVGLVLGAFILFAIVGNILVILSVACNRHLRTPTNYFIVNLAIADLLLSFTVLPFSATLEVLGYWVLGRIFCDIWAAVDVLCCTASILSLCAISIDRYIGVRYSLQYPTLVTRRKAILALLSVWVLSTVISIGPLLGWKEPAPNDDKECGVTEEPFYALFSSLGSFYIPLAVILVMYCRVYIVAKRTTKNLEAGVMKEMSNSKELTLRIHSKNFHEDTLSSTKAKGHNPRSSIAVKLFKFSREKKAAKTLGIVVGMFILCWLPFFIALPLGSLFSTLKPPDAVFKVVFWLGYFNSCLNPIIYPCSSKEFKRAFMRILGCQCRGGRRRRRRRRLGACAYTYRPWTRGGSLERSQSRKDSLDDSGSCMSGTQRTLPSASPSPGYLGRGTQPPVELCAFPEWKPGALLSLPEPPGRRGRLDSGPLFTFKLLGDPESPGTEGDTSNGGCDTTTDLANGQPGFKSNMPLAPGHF
T2 sequence (P23944 whole entry): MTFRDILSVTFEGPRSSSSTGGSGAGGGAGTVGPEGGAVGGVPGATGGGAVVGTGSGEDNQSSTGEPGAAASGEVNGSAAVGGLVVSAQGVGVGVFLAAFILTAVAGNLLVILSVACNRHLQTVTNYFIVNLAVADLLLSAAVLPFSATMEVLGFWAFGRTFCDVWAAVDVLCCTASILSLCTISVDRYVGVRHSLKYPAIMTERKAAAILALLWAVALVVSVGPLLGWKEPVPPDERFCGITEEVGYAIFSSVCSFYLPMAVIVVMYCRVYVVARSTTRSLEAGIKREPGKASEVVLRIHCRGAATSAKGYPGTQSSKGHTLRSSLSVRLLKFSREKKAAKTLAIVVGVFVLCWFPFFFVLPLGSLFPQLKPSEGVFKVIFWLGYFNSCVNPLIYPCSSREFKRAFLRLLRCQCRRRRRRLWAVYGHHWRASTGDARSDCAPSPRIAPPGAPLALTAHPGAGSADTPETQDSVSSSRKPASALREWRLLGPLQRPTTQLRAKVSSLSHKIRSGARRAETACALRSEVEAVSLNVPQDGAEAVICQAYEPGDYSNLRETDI
T2 sequence (P43140 whole entry): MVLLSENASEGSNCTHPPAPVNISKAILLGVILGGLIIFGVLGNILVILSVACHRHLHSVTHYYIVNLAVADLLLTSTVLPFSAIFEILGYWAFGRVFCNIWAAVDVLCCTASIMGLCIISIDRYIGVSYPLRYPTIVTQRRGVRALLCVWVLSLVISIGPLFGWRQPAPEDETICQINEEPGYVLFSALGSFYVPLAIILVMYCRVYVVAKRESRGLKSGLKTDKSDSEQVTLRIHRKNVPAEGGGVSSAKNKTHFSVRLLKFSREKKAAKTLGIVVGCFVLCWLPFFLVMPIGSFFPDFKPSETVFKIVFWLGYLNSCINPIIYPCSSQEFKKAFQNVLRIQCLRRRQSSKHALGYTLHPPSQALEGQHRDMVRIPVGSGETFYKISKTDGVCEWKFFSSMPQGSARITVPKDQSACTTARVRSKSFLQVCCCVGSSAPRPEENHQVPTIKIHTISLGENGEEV
The test is described as follows: Evaluated for affinity at Alpha-1 adrenergic receptor of rat brain using [3H]prazosin as radioligand in radioligand binding assay.

Test [5] is filed under the species Rattus norvegicus. The test is described as follows: Evaluated for inhibition of dopamine, biogenic amine reuptake in synaptosomal rat brain preparations. The class given is functional.
In a further test the target is D(2) dopamine receptor (Rattus norvegicus, UniProt P61169). The test is described as follows: Compound was evaluated for its binding affinity to Dopamine receptor D2 in rat brain using [3H]- spiroperidol radioligand assay. The class given is tissue-based.
Chain of D(2) dopamine receptor (P61169 whole entry): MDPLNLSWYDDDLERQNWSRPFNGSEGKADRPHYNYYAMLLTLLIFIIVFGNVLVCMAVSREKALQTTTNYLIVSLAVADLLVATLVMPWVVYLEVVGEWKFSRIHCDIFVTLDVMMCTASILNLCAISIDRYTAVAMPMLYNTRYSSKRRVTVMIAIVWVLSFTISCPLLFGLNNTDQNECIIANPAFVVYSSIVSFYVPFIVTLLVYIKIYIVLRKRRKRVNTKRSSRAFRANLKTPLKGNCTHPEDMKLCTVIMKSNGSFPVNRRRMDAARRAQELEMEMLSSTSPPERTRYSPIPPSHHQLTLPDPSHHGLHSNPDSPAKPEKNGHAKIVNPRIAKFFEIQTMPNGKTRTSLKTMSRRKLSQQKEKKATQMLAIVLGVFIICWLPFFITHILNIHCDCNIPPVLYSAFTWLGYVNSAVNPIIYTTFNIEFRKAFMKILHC
For test [6], the target named is Beta-1 adrenergic receptor (Rattus norvegicus, UniProt P18090). Description: Compound was evaluated for its binding affinity to beta-1 receptor in rat brain using [3H]- DHA radioligand assay. Format: tissue-based.
Chain of Beta-1 adrenergic receptor (P18090 whole entry): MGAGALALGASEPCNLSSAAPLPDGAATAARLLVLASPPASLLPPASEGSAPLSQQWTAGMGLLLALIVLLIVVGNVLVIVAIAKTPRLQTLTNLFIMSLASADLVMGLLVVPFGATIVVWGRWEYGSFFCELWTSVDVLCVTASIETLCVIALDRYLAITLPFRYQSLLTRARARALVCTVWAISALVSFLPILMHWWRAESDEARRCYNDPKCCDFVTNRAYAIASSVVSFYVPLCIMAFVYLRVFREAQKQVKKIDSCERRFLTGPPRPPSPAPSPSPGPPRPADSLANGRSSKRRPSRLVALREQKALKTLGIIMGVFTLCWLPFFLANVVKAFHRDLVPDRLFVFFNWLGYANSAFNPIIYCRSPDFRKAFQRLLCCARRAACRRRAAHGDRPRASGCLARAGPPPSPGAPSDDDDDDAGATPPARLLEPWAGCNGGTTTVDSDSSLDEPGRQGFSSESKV
The species named for test [7] is Rattus norvegicus. The test is described as follows: […] reversal of passive avoidance deficit in olfactory bulbectomized rats. The class given is functional.
Another test concerns the target D(1A) dopamine receptor (Rattus norvegicus, UniProt P18901). The test is described as follows: Compound was evaluated for its binding affinity to Dopamine receptor D1 in rat striatum using [3H]- SCH-23390 radioligand assay. The class given is tissue-based.
Test [8] addresses Serotonin 2 (5-HT2) receptor (Rattus norvegicus, UniProt P30994+P08909+P14842). Description: Compound was evaluated for its binding affinity to 5-hydroxytryptamine 2 receptor in rat cortex using [3H]ketanserin radioligand assay.
Test [9] has as its target Serotonin 1 (5-HT1) receptor (Rattus norvegicus, UniProt P28564+P30940+P19327+P28565). Description: Compound was evaluated for its binding affinity to 5-hydroxytryptamine 1 receptor in rat brain using [3H]HT radioligand assay. The class given is tissue-based.
The target of test [10] is T1, Adrenergic receptor alpha-2. Description: Evaluated for affinity at Alpha-2 adrenergic receptor of rat brain using [3H]rauwolscine as radioligand in radioligand binding assay.
For test [11], the species on record is Rattus norvegicus. The test is described as follows: Evaluated for inhibition of 5-Hydroxytryptamine, biogenic amine reuptake in synaptosomal rat brain preparations. The class given is functional.

Chain of D(1A) dopamine receptor (P18901 whole entry): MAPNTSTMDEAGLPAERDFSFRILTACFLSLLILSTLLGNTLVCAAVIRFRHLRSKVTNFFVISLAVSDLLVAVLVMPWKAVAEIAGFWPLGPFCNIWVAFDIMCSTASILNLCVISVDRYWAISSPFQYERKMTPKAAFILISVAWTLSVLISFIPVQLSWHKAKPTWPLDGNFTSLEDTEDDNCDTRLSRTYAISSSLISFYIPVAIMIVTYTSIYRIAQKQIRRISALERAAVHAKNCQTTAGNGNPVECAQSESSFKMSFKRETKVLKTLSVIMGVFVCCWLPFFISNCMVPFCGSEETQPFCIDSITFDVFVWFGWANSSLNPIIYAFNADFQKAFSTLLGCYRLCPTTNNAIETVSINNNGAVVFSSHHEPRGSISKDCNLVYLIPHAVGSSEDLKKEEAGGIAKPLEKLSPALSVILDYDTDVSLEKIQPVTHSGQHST

One may read the Ki as the equilibrium dissociation constant of an inhibitor or competing ligand from its target. Lower therefore signals a stronger hold on the target. For orientation: ED50 means the dose at which the effect has come halfway, by size or by number of responders. By pIC50 is commonly meant −log10 of the IC50, conventionally taken in molar units. A low value points to a large IC50. One may read the pKi as the negative decadic logarithm of the Ki, by convention in mol/L. As for `COc1cccc2c1CCC[C@H]2CN(C)CCc1ccc2ccoc2c1`, the Ki in [1] is recorded as 2.01 nM; in [4], 110 nM; in [8] it was 144 nM; in test [9] it was 2970 nM. Besides, the ED50 in the test filed under Rattus norvegicus [2] worked out at 13.3 mg/kg; in the test filed under Rattus norvegicus [7], 7.1 mg/kg. Moreover, the negative-log IC50 (pIC50) was 6.06 in the test listed under Rattus norvegicus [3] and 5.53 in the test filed under Rattus norvegicus [5]. For the same compound, the results for the pKi (at D(2) dopamine receptor; in [6]; at D(1A) dopamine receptor) were 7.28, 6.08 and 6.13, respectively.
As for `COc1cccc2c1CCC[C@@H]2CN(C)CCc1ccc2ccoc2c1`, the Ki is 110 nM in [10] and 241 nM in test [4]. Besides, the negative-log IC50 (pIC50) was 6.32 in the test listed under Rattus norvegicus [3] and 5.32 in the test listed under Rattus norvegicus [5].
`CNCCC(Oc1ccc(C(F)(F)F)cc1)c1ccccc1` (stereo unspecified) [FLUOXETINE]: the values for the ED50 in the test listed under Rattus norvegicus [2] and in the test listed under Rattus norvegicus [7] were 11.7 mg/kg and 12.1 mg/kg, respectively. Also, the pIC50 in the test filed under Rattus norvegicus [3] is 5.48; in the test listed under Rattus norvegicus [5], 4.79; in the test listed under Rattus norvegicus [11] it was 6.51.
Take `Fc1ccc([C@@H]2CCNC[C@H]2COc2ccc3c(c2)OCO3)cc1` [PAROXETINE]: the Ki was 6310 nM in test [10] and 5320 nM in [4]. For the same compound, the pIC50 was 6.80 in the test listed under Rattus norvegicus [3] and 5.12 in the test filed under Rattus norvegicus [5].
On to `COC(=O)[C@H]1[C@H]2C[C@H]3c4[nH]c5ccccc5c4CCN3C[C@H]2CC[C@@H]1O` [RAUWOLSCINE], for which the pIC50 in the test filed under Rattus norvegicus [3] and in the test listed under Rattus norvegicus [5] was under 5.00 in each case.
